The values below come from paper PMC9042912, “T cell receptor and IL-2 signaling strength control memory CD8^+ T cell functional fitness via chromatin remodeling” (Nature Communications, 2022).

In general, Kd refers to the concentration at which binding is half-saturated. Lower therefore signals a tighter complex.

This assay deals with T1, H2-K^b (Mus musculus, UniProt P01901).
T1 construct: RMA-S cells were added per well to a 96-well flat-bottom plate and incubated at 30 °C overnight; endogenous in cells; host or cells: RMA-S cells (TAP-deficient), obtained from Dr. Steve Porcelli
T1 sequence (P01901 22-369): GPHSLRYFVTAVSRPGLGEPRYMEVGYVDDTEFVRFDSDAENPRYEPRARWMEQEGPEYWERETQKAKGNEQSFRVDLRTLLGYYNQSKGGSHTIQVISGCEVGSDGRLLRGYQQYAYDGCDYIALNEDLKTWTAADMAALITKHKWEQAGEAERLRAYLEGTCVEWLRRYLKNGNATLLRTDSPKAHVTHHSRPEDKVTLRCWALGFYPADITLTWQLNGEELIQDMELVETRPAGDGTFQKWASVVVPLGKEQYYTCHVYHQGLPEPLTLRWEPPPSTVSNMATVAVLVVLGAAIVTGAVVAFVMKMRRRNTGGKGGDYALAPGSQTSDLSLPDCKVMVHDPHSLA
T1 sequence (P01887 21-119 partner): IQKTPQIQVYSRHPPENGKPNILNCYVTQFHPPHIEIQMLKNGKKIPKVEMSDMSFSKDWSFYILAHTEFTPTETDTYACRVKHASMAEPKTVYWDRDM
The assay can be described thus: cell-based.

No end group written: not given here.

Consider SIINFEKA [A8], for which the Kd is 351 nM.
